Experimental data reported in patent publication US20230413816A1, “COMPOSITIONS COMPRISING ALLYL SULFIDE AND A SURFACTANT AND METHODS OF USING SAME” (The State of Israel, Ministry of Agriculture & Rural …, priority 2020, published 2023).

What was measured:
whole vine = details: applied to the whole vine rather than to cuttings; cited from earlier work
Grapevines = assay: Bud break scored on the BBCH scale, commercial vineyard in South Africa (Example 3); assay type: in vivo, grapevine; details: for bud-breaking efficiency compared with commercially available agents (HC): sulfide compound with 2% w/w T7; for bud break score (BBCH scale): 36 days after treatment, untreated score 19
Description: FIGS. 5A-5B are bar graphs presenting a comparison between the bud break efficiency of the exemplary compositions of the invention and controls in vine. The X-axis represents different treatments, and the Y-axis represents vine growth stage according to the BBCH scale, as scored 36 days after treatment. FIG. 5A represents a comparison between the synergistic bud break efficiency of T7 in combination with different sulfide compounds (DADS and dimethyl sulfide, DMS). 1—untreated vines (negative control); 2—2.5% w/w DMS and 2% w/w T7; 3—5% w/w DMS and 2% w/w T7; 4—HC (positive control); 5—5% w/w DADS and 2% w/w T7. FIG. 5B represents a comparison between the synergistic bud break efficiency of 6% w/w DADS in combination with various concentrations of T7 (entries 4-7) versus controls (entries 1-2, and 8). 1—untreated vines (negative control); 2—12% w/w T7 no DADS; 3—6% w/w DADS no T7; 4—6% w/w DADS and 12% w/w T7; 5—6% w/w DADS and 1% w/w T7; 6—6% w/w DADS and 2% w/w T7; 7—6% w/w DADS and 0.5% w/w T7; 8—HC (positive control).
Grapevines in a commercial vineyard in South Africa were sprayed exemplary agricultural compositions of the invention. Two different experimental treatments have been performed on 5 blocks of 14 vines. The bud break efficiency of each treatment has been evaluated by scoring 60 buds per vine according to BBCH scale at different time points after treatment. BBCH values represent average values of five blocks per treatment. The tested exemplary agricultural compositions utilized for each experimental treatment were as follows: • 2% w/w of T7 (see Table 1) together with various concentrations (2.5, 5 and 6% w/w) of the sulfide compound ([…] (DMS); and DADS). The effect of these treatments was compared to a commercial formulation comprising 50% HC; as well as to a negative control, i.e. untreated vines. The results of this experiment are represented in FIG. 5A. • 6% w/w DADS together with various concentrations (0.5, 1, 2 and 12% w/w) of T7. The effect of these treatments was compared to a commercial formulation comprising 50% HC; as well as to negative controls including untreated plant, and plants treated with 12% w/w T7 and 6% w/w DADS, respectively. The results of this experiment are represented in FIG. 5B.

[1] = tested on: spur-pruned cv. Early Sweet vines; assay: Bud breaking on whole vines in a vineyard (Example 1, Jordan Valley); assay type: in vivo, grapevine
Method: FIG. 1 is a graph presenting a comparison between the bud break efficiency of the exemplary compositions of the invention and controls, when applied to spur-pruned cv. Early Sweet vines at the beginning of January in a vineyard located at Argaman, the Jordan Valley, Israel. Bud counts were conducted once a week and started about […] after treatment. The tested combinations were as follows: (a) DADS at 6% w/w, together with (b) 2% w/w of a non-ionic surfactant (abbreviated as T3-D2, T4-D2, T5-D2, T6-D2 or T7-D2, respectively) or of a cationic surfactant (Armobreak®, abbreviated as T1-D2). The controls were as follows: (a) plants treated with Triton X-100 (abbreviated as Con), and (b) single treatments with DADS, HC, and the surfactants (abbreviated as T1, T3, T4, T5, T6 or T7, respectively). The chemical structures of the surfactants are as represented in Table 1, below. The Y-axis represents the percentage of the bursting buds out of the total number of the buds on a vine.
The Y-axis represent the percentage of bursting basal buds out of total number of spurs on a vine.
Mature spur-pruned cv. […]
Each formulation was sprayed onto five blocks of two vines, wherein the values presented in FIG. 1 are an average of the ten tested grapevines. […] Total number of buds was recorded once for each vine, and number of bursting buds were recoded for each vine at 22, 27, 34 and 41 d after treatment.

Kiwi plants = assay: Bud break trial on kiwi (Example 4); assay type: in vivo; details: 49 days after treatment
Description: The inventors performed numerous experiments to assess the effect of application of an exemplary composition of the invention (e.g. about 6% w/w DADS and about 4% w/w T7) on bud break in various plants. For each test from about 500 to about 1500 l/ha of the composition have been applied (e.g. by spraying) to the orchard, to result in almost complete wetting of the treated plants. The tested plant species included kiwi, cherry, apple, and plum.

Structure (SMILES) | bud break enhancing effect compared with HC (whole vine) | bud-breaking efficiency compared with commercially available agents (HC) (Grapevines) | bud break score (BBCH scale) (Grapevines; 2.5% w/w DMS and 2% w/w T7) | bud break score (BBCH scale) (Grapevines; 5% w/w DMS and 2% w/w T7) | bud break efficiency, ranking among the treatments of FIG. 1 ([1]; 6% w/w DADS + 2% w/w surfactant, or HC, percentage of bursting buds) | bud break uniformity along a spur ([1]; FIG. 3, basal buds) | bud break (Kiwi plants) [%] | bud break of HC relative to the composition of the invention (times less) (Kiwi plants) [times] | green foliage coverage score (of 10) (Kiwi plants)
C=CCSSCC=C [DADS, diallyl disulfide] | very limited and inferior to HC | comparable with the efficiency of commercially available agents | – | – | – | – | – | – | –
CSC [DMS, dimethyl sulfide] | – | comparable with the efficiency of commercially available agents | 24 | 30-31 | – | – | – | – | –
N#CN [HC, hydrogen cyanamide] | – | – | – | – | superior | significantly less uniform bud break | 24 | ~2 | 2
